In patent US11083725B2 (priority 2014, dated 2021):
Where two headings read alike, the source gives them in different places.

System: NHBE cells
Experiment: cells
Assay type: cell-based, human
[1] = read-out: IC50, Prophylactic Treatment, Control
[2] = read-out: IC50, Prophylactic Treatment, Viral Infected
[3] = […], dose response 4 nM to 10 μM, […], read-out: IC50, Therapeutic Treatment, Viral Infected
[4] = […], prophylactic schedule, dose response 4 nM to 10 μM, […], read-out: IC50, Prophylactic Treatment, Control
[5] = […], therapeutic schedule, dose response 4 nM to 10 μM, […], read-out: IC50, Therapeutic Treatment, Control
[6] = Homo sapiens, NHBE, 72 h, […], prophylactic schedule, dose response 4 nM to 10 μM, […], read-out: IC50, Prophylactic Treatment, Control

Question: For `NOCC(=O)O`, which IC50 [1] is on record?
Answer: The IC50 was 5 µM.

Question: What about the IC50 [2] of the same compound?
Answer: The IC50 was 10 µM.

Question: Which IC50 [3] does the source give for `O=C([O-])CC(O)C(=O)[O-].[Na+].[Na+]` (racemic) [DISODIUM DL-MALATE HYDRATE] here?
Answer: The IC50 was 7 µM.

Question: And the IC50 [4]?
Answer: The IC50 was 0.03 µM.

Question: How did the IC50 [3] turn out when `O=[N+]([O-])c1ccc(O)c([N+](=O)[O-])c1` [2,4-DINITROPHENOL] was run?
Answer: Its IC50 is 4 µM.

Question: What about the IC50 [4] of the same compound?
Answer: Its IC50 is 0.38 µM.

Question: And the IC50 [5]?
Answer: Its IC50 is 8 µM.

Question: Which IC50 [4] does the source give for `N#C/C(=C\c1ccc(O)cc1)C(=O)O` [ALPHA-CYANO-4-HYDROXYCINNAMIC ACID] here?
Answer: The IC50 was 3 µM.

Question: How did the IC50 [1] turn out when `CC(C)c1c(C(=O)Nc2ccccc2)c(-c2ccccc2)c(-c2ccc(F)cc2)n1CC[C@@H](O)C[C@@H](O)CC(=O)O` [ATORVASTATIN CALCIUM] was run?
Answer: The IC50 was 3 µM.

Question: And the IC50 [2]?
Answer: The IC50 was 3 µM.

Question: For `Cc1cc([C@@H](C)Nc2ccccc2C(=O)O)c2nc(N3CCOCC3)cc(=O)n2c1` [AZD-6482], which IC50 [6] is on record?
Answer: Its IC50 is 5 µM.

Question: `CC(C)(Oc1ccc(CCNC(=O)c2ccc(Cl)cc2)cc1)C(=O)O` [BEZAFIBRATE] was tested. Which IC50 [6] did it give?
Answer: Its IC50 is 7.2 µM.

Question: How did the IC50 [5] turn out when `OO.OO.[K+].[OH-].[V].c1cnc2c(c1)ccc1cccnc12` [BPV(PHEN)] was run?
Answer: Its IC50 is 0.005 µM.

Question: For `C=C1C(=O)O[C@H](CCCCCCCC)[C@H]1C(=O)O` [C75], which “Cell Death Prophylactic” value is on record?
Answer: The value was “C > V”.

Question: What about the “Cell Death Therapeutic” value of the same compound?
Answer: Its value is “C = V”.
